Reference: patent US8791102B2, “Acetanilide sphingosine-1-phosphate receptor antagonists” (Exelixis, Inc., priority 2008, dated 2014)

These molecules were tested against T1, human S1P1 receptors (Homo sapiens, UniProt P21453) (assay: S1P1R antagonist assay (fluorescent membrane potential dye, cAMP readout)). Details: HEK293 cells expressing human S1P1 receptors and CNG channel; 500 nM NECA; S1P1R agonist 10 nM; 90 minutes; read-out: EC50 or IC50 value.
T1 construct: host or cells: HEK293
Assay type: cell-based

T1 sequence (P21453 whole entry): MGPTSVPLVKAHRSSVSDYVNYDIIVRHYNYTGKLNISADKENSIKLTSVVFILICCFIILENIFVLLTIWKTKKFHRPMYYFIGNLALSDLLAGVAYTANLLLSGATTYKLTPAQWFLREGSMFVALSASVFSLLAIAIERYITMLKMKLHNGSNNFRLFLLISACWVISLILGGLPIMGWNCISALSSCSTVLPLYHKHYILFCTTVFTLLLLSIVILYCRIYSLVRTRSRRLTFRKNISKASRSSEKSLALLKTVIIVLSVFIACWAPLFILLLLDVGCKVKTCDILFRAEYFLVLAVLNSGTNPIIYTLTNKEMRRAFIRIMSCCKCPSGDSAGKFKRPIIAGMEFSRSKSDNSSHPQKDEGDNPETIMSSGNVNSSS

Row | IC50 | SMILES
1 | 300 to 1000 nM | O=C(Nc1ccc(Oc2ccc(F)cc2)cc1)[C@@H]1C[C@@H](c2ccccc2)CN1C(=O)Cn1cncn1 [Compound 78, (2S,4S)-1-(2-(1H-1,2,4-triazol-1-yl)acetyl)-N-(4-(4-fluorophenoxy)phenyl)-4-phenylpyrrolidine-2-carboxamide]
2 | ≤ 300 nM | O=C(Nc1ccc(Oc2ccc(Cl)cc2)cc1)[C@@H]1C[C@@H](Cc2ccccc2)CN1C(=O)Cn1cncn1 [Compound 79, (2S,4R)-1-(2-(1H-1,2,4-triazol-1-yl)acetyl)-4-benzyl-N-(4-(4-chlorophenoxy)phenyl)pyrrolidine-2-carboxamide]
3 | 300 to 1000 nM | O=C(Nc1ccc(Oc2ccc(F)cc2)cc1)[C@@H]1C[C@H](NCc2ccccc2)CN1C(=O)Cn1cncn1 [Compound 80, (2S,4S)-1-(2-(1H-1,2,4-triazol-1-yl)acetyl)-4-(benzylamino)-N-(4-(4-fluorophenoxy)phenyl)pyrrolidine-2-carboxamide]
4 | > 1000 nM | COc1ccc(CCC(=O)N[C@@H](COCc2ccccc2)C(=O)Nc2ccc(Oc3ccc(F)cc3)cc2)cc1Cl [Compound 81, (S)-3-(benzyloxy)-2-(3-(3-chloro-4-methoxyphenyl)propanamido)-N-(4-(4-fluorophenoxy)phenyl)propanamide]
5 | ≤ 300 nM | O=C(Nc1ccc(Oc2ccc(F)cc2)cc1)[C@@H]1C[C@@H](Cc2ccccc2)CN1C(=O)CN1CCc2ccccc2C1 [Compound 82, (2S,4R)-4-benzyl-1-(2-(3,4-dihydroisoquinolin-2(1H)-yl)acetyl)-N-(4-(4-fluorophenoxy)phenyl)pyrrolidine-2-carboxamide]
6 | ≤ 300 nM | O=C(Nc1ccc(Oc2ccc(F)cc2)cc1)[C@@H]1C[C@@H](Cc2ccccc2)CN1C(=O)CN1CCSCC1 [Compound 83, (2S,4R)-4-benzyl-N-(4-(4-fluorophenoxy)phenyl)-1-(2-thiomorpholinoacetyl)pyrrolidine-2-carboxamide]
7 | ≤ 300 nM | O=C(Nc1ccc(Oc2ccc(F)cc2)cc1)[C@@H]1C[C@@H](Cc2ccccc2)CN1C(=O)Cc1c(F)ccc(F)c1F [Compound 84, (2S,4R)-4-benzyl-N-(4-(4-fluorophenoxy)phenyl)-1-(2-(2,3,6-trifluorophenyl)acetyl)pyrrolidine-2-carboxamide]
8 | ≤ 300 nM | CSCCC(=O)N1C[C@H](Cc2ccccc2)C[C@H]1C(=O)Nc1ccc(Oc2ccc(F)cc2)cc1 [Compound 85, (2S,4R)-4-benzyl-N-(4-(4-fluorophenoxy)phenyl)-1-(3-(methylthio)propanoyl)pyrrolidine-2-carboxamide]
9 | ≤ 300 nM | CCOCCC(=O)N1C[C@H](Cc2ccccc2)C[C@H]1C(=O)Nc1ccc(Oc2ccc(F)cc2)cc1 [Compound 86, (2S,4R)-4-benzyl-1-(3-ethoxypropanoyl)-N-(4-(4-fluorophenoxy)phenyl)pyrrolidine-2-carboxamide]
10 | ≤ 300 nM | CS(=O)(=O)CC(=O)N1C[C@H](Cc2ccccc2)C[C@H]1C(=O)Nc1ccc(Oc2ccc(F)cc2)cc1 [Compound 87, (2S,4R)-4-benzyl-N-(4-(4-fluorophenoxy)phenyl)-1-(2-(methylsulfonyl)acetyl)pyrrolidine-2-carboxamide]
11 | ≤ 300 nM | COCCOCC(=O)N1C[C@H](Cc2ccccc2)C[C@H]1C(=O)Nc1ccc(Oc2ccc(F)cc2)cc1 [Compound 88, (2S,4R)-4-benzyl-N-(4-(4-fluorophenoxy)phenyl)-1-(2-(2-methoxyethoxy)acetyl)pyrrolidine-2-carboxamide]
12 | ≤ 300 nM | CN(C)C(=O)CCC(=O)N1C[C@H](Cc2ccccc2)C[C@H]1C(=O)Nc1ccc(Oc2ccc(F)cc2)cc1 [Compound 89, (2S,4R)-4-benzyl-1-(4-(dimethylamino)-4-oxobutanoyl)-N-(4-(4-fluorophenoxy)phenyl)pyrrolidine-2-carboxamide]
13 | ≤ 300 nM | COCCC(=O)N1C[C@H](Cc2ccccc2)C[C@H]1C(=O)Nc1ccc(Oc2ccc(F)cc2)cc1 [Compound 90, (2S,4R)-4-benzyl-N-(4-(4-fluorophenoxy)phenyl)-1-(3-methoxypropanoyl)pyrrolidine-2-carboxamide]
14 | ≤ 300 nM | O=C(CCC(=O)N1C[C@H](Cc2ccccc2)C[C@H]1C(=O)Nc1ccc(Oc2ccc(F)cc2)cc1)c1cccs1 [Compound 91, (2S,4R)-4-benzyl-N-(4-(4-fluorophenoxy)phenyl)-1-(4-oxo-4-(thien-2-yl)butanoyl)pyrrolidine-2-carboxamide]
15 | ≤ 300 nM | O=C(Nc1ccc(Oc2ccc(F)cc2)cc1)[C@@H]1C[C@@H](Cc2ccccc2)CN1C(=O)C1CCCO1 (stereo partly drawn) [Compound 92, (2S,4R)-4-benzyl-N-(4-(4-fluorophenoxy)phenyl)-1-(tetrahydrofuran-2-carbonyl)pyrrolidine-2-carboxamide]
16 | ≤ 300 nM | CC(=O)N1CCC[C@H]1C(=O)N1C[C@H](Cc2ccccc2)C[C@H]1C(=O)Nc1ccc(Oc2ccc(F)cc2)cc1 [Compound 93, (2S,4R)-1-((S)-1-acetylpyrrolidine-2-carbonyl)-4-benzyl-N-(4-(4-fluorophenoxy)phenyl)pyrrolidine-2-carboxamide]
17 | ≤ 300 nM | O=C(Nc1ccc(Oc2ccc(F)cc2)cc1)[C@@H]1C[C@@H](Cc2ccccc2)CN1C(=O)CSc1ncccn1 [Compound 94, (2S,4R)-4-benzyl-N-(4-(4-fluorophenoxy)phenyl)-1-(2-(pyrimidin-2-ylthio)acetyl)pyrrolidine-2-carboxamide]
18 | ≤ 300 nM | O=C(Nc1ccc(Oc2ccc(F)cc2)cc1)[C@@H]1C[C@@H](Cc2ccccc2)CN1C(=O)Cc1c(F)cccc1F [Compound 95, (2S,4R)-4-benzyl-1-(2-(2,6-difluorophenyl)acetyl)-N-(4-(4-fluorophenoxy)phenyl)pyrrolidine-2-carboxamide]
19 | ≤ 300 nM | O=C(Nc1ccc(Oc2ccc(F)cc2)cc1)[C@@H]1C[C@@H](Cc2ccccc2)CN1C(=O)CSc1ccncc1 [Compound 96, (2S,4R)-4-benzyl-N-(4-(4-fluorophenoxy)phenyl)-1-(2-(pyridin-4-ylthio)acetyl)pyrrolidine-2-carboxamide]
20 | ≤ 300 nM | O=C(Nc1ccc(Oc2ccc(F)cc2)cc1)[C@@H]1C[C@@H](Cc2ccccc2)CN1C(=O)CN1C(=O)c2ccccc2C1=O [Compound 97]
21 | ≤ 300 nM | O=C(Nc1ccc(Oc2ccc(F)cc2)cc1)[C@@H]1C[C@@H](Cc2ccccc2)CN1C(=O)Cc1c[nH]c2ccccc12 [Compound 98, (2S,4R)-1-(2-(1H-indol-3-yl)acetyl)-4-benzyl-N-(4-(4-fluorophenoxy)phenyl)pyrrolidine-2-carboxamide]
22 | ≤ 300 nM | O=C(Nc1ccc(Oc2ccc(F)cc2)cc1)[C@@H]1C[C@@H](Cc2ccccc2)CN1C(=O)CN1C(=O)CSC1=S [Compound 99, (2S,4R)-4-benzyl-N-(4-(4-fluorophenoxy)phenyl)-1-(2-(4-oxo-2-thioxothiazolidin-3-yl)acetyl)pyrrolidine-2-carboxamide]
23 | ≤ 300 nM | COCCN1CCN(CC(=O)N2C[C@H](Cc3ccccc3)C[C@H]2C(=O)Nc2ccc(Oc3ccc(F)cc3)cc2)CC1 [Compound 100, (2S,4R)-4-benzyl-N-(4-(4-fluorophenoxy)phenyl)-1-(2-(4-(2-methoxyethyl)piperazin-1-yl)acetyl)pyrrolidine-2-carboxamide]
24 | > 1000 nM | O=C(Cc1cccc(OC(F)(F)F)c1)N[C@@H](COCc1ccccc1)C(=O)Nc1ccc(Oc2ccc(F)cc2)cc1 [Compound 102, (S)-3-(benzyloxy)-N-(4-(4-fluorophenoxy)phenyl)-2-(2-(3-(trifluoromethoxy)phenyl)acetamido)propanamide]
